Experimental data published in patent US4474961A, “1,10[8,9-Benz]phenanthroline” (Development Finance Corporation of New Zealand, priority 1982, dated 1984).

Legend:
tumour = conditions: earlier work, literature; cited from earlier work
[1] = system: murine L1210 leukaemia cells; assay: L1210 in vitro, growth of cultured murine leukaemia cells; assay type: cell-based; conditions: Mus musculus, concentration that reduces counted number of leukaemia cells by 50% over 70 hours, read-out: ID50 (the source's name)
Text: L1210 in vitro--The culture methods used are described in detail elsewhere (B. C. Baguley and R. Nash, Europ.J.Cancer, 17, 671-679 (1981). Acceptable reproducibility of data depends critically upon the maintenance of optimal culture conditions. L1210 cells were initially obtained from Dr. I. Wodinsky, Arthur D. Little Inc., Boston, U.S.A., under the auspices of the National Cancer Institute.
ID50 --the nanomolar concentration of drug which when added to cultures of murine L1210 leukaemia cells over a period of 70 hours, reduces the resultant counted number of leukaemia cells by 50% (B. C. Baguley and R. Nash, Europ.J.Cancer 17, 671-679 (1981).

P388 leukaemia = assay: P388 in vivo, life span of mice bearing intraperitoneal P388 leukaemia; parameters: species or system mice (F1 hybrid, DBA-2 male×C57 B1 female); conditions: for ILS (percentage increase in life span): at optimal dose, days 1, 5 and 9, controls survive 11 days on average, >20% statistically significant; for OD (O.D., optimal drug dose): solution in 0.1 ml of 30% v/v ethyl alcohol in water on days 1, 5 and 9, soluble acid addition salt
Text: These have been shown by studies at the National Cancer Institute, U.S.A. to be useful for detecting agents with antitumor activity against clinical cancer (A. Goldin, J. M. Venditti, J. S. MacDonald, F. M. Mugia, J. E. Henney and V. T. De Vita, Europ.J. Cancer 17, 129-142, (1981). The abbreviations given in Table II are:
P388 in vivo--Tumour P388 cells were obtained as frozen stocks from Mason Research Inc., U.S.A. and passaged intraperitoneally according to standard methods (Cancer Chemother. Rep. 3, Part 3, page 9, 1972) in DBA-2 mice of either sex. Groups of six F1 hybrid mice (DBA-2 male×C57 B1 female, g weight 20±1 g) were injected intraperitoneally with 10^6 cells on day 0.
O.D.--optimal drug dose, in milligrams per kilogram, administered as a solution in 0.1 ml of 30% v/v ethyl alcohol in water on days 1, 5 and 9 after tumour inoculation. The drug is administered as a soluble acid addition salt.
ILS--percentage increase in life span of treated animals over that of groups of control animals injected with tumour alone. The average survival of control mice was 11 days. Values of ILS greater than 20% are considered statistically significant.

| SMILES | antitumour effect (tumour) | IC50 [1] [nM] | Active (P388 leukaemia) | ILS (percentage increase in life span) (P388 leukaemia) [%] | OD (O.D., optimal drug dose) (P388 leukaemia) [milligrams per kilogram] |
| --- | --- | --- | --- | --- | --- |
| CS(=O)(=O)Nc1ccc(Nc2c3ccccc3nc3ccccc23)cc1 [AMSA, 4'-(9-acridinylamino) methanesulphonanilide] | marked antitumour effect |  |  |  |  |
| COc1cc(NS(C)(=O)=O)ccc1Nc1c2ccccc2nc2c1ccc1cccnc12 [Compound 1] |  | 26 | Yes | 109 | 13.3 |
| CS(=O)(=O)Nc1ccc(Nc2c3ccccc3nc3c2ccc2cccnc23)cc1 [Compound 2] |  | 58 | Yes | 30 | 150 |
| COC(=O)Nc1ccc(Nc2c3ccccc3nc3c2ccc2cccnc23)c(OC)c1 [Compound 3] |  | 46 | Yes | 95 | 45 |
| COC(=O)Nc1ccc(Nc2c3ccccc3nc3c2ccc2cccnc23)cc1 [Compound 4] |  | 18 | Yes | 64 | 30 |
| COP(=O)(Nc1ccc(Nc2c3ccccc3nc3c2ccc2cccnc23)cc1)OC [Compound 5] |  | 31 | Yes | 64 | 45 |
